According to US8084589B2, “Phosphoramidite nucleoside analogs” (University of Massachusetts, priority 2007, dated 2011):
Strand notation (5' to 3'): a small letter for the sugar, then the base; units joined by * are phosphorothioate-linked, units joined directly phosphodiester-linked; [ ] holds rarer units or linkages, { } end groups; capitals alone tell only the bases. [TEGam] = internucleoside phosphate triester carrying a triethylene glycol amino linker (free amine, native form); {Y} = hydroxypropyldithiopropyl phosphate linker, HOCH2CH2SSCH2CH2CH2O-P(O)(OH)-; d = 2'-deoxy (DNA)

Experiments:
[1] = Storage stability of synthon 2 (coupling efficiency on the synthesizer); type: physicochemical; conditions: for coupling yield of the monomer: in anhydrous acetonitrile at room temperature, 3 minutes coupling
Protocol: Usually the compound was dissolved in anhydrous acetonitrile under argon and was kept on the synthesizer for up to two weeks at room temperature. The coupling yield of the monomer for the 3 minutes coupling duration was 98-99% after 7-8 days, and for the same coupling conditions coupling yield decreased to 90% after additional 10-12 days. Coupling yields were assessed using a DMTr detector reading on the synthesizer.

[2] = Storage stability of oligonucleotide conjugate in water (HPLC); type: physicochemical; conditions: deionized water, −20° C., approximately four months
Protocol: A limited stability study of one of the novel oligonucleotide conjugates, VIII, which contained 800CW dye at the 8th nucleoside from the 5′-end (see Table 2), was performed.

[3] = Melting temperature of oligonucleotide duplexes (UV, FRET loss or dequenching); type: physicochemical; conditions: for Melting point, ° C, method: Table 5, method UV
Protocol: Watson-Crick base paring properties of the modified oligonucleotides were evaluated by comparison of melting temperatures of a duplex formed between the amino-functionalized oligonucleotide CGG AAA GT*C CCT CAT AGC T (I, SEQ ID NO: 1) and its complementary unmodified oligonucleotide 3′[…] 5′ (Duplex 1, SEQ ID NO:5) and a control, unmodified duplex with the same sequence (Duplex 2). The melting temperatures were almost equal, i.e. 65 and 66° C. for Duplexes 1 and 2, respectively.
The conjugates were characterized by HPLC analysis, mass spectrometry and UV/VIS spectroscopy. Briefly, spectral measurements were performed using a Cary 50 Bio UV-visible spectrophotometer. Melting temperatures were determined with a step-wise Peltier temperature ramping bath in 2 degree mode in a temperature-controlled cuvette holder. Electrospray mass spectrometry (MS) was performed with a LTQ Linear Ion trap mass spectrometer (Thermo, Inc) with use of a Nanomate (Advion, Inc.) robot. Spectra were obtained in the negative ion mode with 1.8 kV spray voltage and 0.8 PSI back pressure (UMMS Proteomic and Mass Spectrometry Core Facility, University of Massachusetts Medical School, Worcester, Mass.). Sample solutions were adjusted to 75% methanol before MS analysis. The full mass spectra were acquired for 30 seconds from m/z 400-2000 using 2 ms scans and 10 ms maximum injection time.
The synthesized ODN duplex probes were characterized by comparing melting temperatures of native, non-modified ODN pair to those duplexes prepared by using covalently labeled ODNs.
The FRET between Cy5.5 and the acceptor on complementary ODN was observed after Cy5.5-ODN3 was incubated with Cy7- or 800CW-linked to ODN2 (see FIGS. 20A-B). […] In the presence of internucleoside phosphate-linked Cy7 on the complementary strand it was observed more than 10 times lower fluorescence of Cy5.5 measured at 700 nm (λex=675 nm) and a 3-fold higher fluorescence of Cy7 (if compared to the duplex formed between Cy7-ODN2 and ODN3), FIGS. 20A-D. The formation of duplexes and reversible FRET effects were further studied in more detail by following sigmoidal dependence of the temperature-dependent increase of Cy5.5 fluorescence in a microcuvette of a spectrofluorometer. These experiments enabled measurement of two parameters: melting temperatures and the overall FRET efficacy (Table 5).

NF-κB p50 = target: T1, NF-κB p50 (Homo sapiens, UniProt P19838); assay: EMSA of recombinant p50 binding to fluorescent duplexes; conditions: both Cy5.5-800CW and Cy5.5-Cy7 donor/acceptor pairs
T1 sequence (P19838 1-433 limits assumed): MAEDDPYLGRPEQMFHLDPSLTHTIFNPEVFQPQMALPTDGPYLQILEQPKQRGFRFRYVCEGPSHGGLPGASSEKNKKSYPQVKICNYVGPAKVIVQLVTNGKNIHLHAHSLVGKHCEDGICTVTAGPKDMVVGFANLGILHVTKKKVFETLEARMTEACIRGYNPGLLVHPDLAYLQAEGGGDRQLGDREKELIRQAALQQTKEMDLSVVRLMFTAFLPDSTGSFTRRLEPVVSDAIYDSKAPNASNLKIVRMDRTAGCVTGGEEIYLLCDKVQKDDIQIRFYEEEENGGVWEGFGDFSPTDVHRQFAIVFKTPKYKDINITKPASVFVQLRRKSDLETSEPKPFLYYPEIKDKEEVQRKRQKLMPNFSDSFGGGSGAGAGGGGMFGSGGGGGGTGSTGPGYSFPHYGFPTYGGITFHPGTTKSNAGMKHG
Source text: The binding of NF-κB p50 to duplexes was initially followed by using two methods: 1) electrophoretic mobility shift essay (EMSA) in polyacrylamide gels; 2) fluorescence energy transfer loss measurements after adding p50 to the duplex in solution. In the first case the components of the mixture are off equilibrium since the free duplex is separated due to a faster migration in electric field during the analysis. The second method afforded measurements at the equilibrium but the observed fluorescence change values are affected by the background fluorescence due to the presence of the free duplex. […] Fluorescence of both free and bound duplex could be imaged by using a transillumination scanner and CCD camera that detected emitted light at two wavelengths—[…] (FIG. 21A) and 800 nm (FIG. 21B, fused image—FIG. 21C). […] However, by comparing Cy5.5-labeled duplexes (ODN2/Cy5.5-ODN3 and ODN4/Cy5.5-ODN5) it was determined that in the case of full-length binding sites 94% of fluorescence co-migrated with p50, whereas only 63% co-migrated with ODN4/Cy5.5-ODN5 duplex (FIG. 21D) at the saturating concentrations of p50 monomer (200 nM).
The half-maximal amount of p50 was 238-300 ng (corresponding to approximately 600 nM). […] A similar trend was observed if 800CW dye was used as Cy5.5 fluorescence acceptor and the differences were also significant (p=0.02).

## COc1ccc(C(OC[C@H]2O[C@@H](n3cc(C)c(=O)[nH]c3=O)C[C@@H]2OP(OCCOCCOCCNC(=O)C(F)(F)F)N(C(C)C)C(C)C)(c2ccccc2)c2ccc(OC)cc2)cc1 (stereo partly shown) [synthon 2, 5′-O-DMTr-thymidine-3′-O-(2-(2-(2-trifluoroacetamidoethoxy)-ethoxy)ethyl)-N,N-diisopropylphosphoramidite]
[1]; dry acetonitrile, on synthesizer, room temperature
  stability in dry acetonitrile: stable in dry acetonitrile for at least one week
[1]; after 7-8 days
  coupling yield of the monomer: 98-99%
[1]; after additional 10-12 days
  coupling yield of the monomer: 90%
[1]; stored six months at −20° C.
  stability of dry monomer on storage: no apparent decrease in coupling efficiency

## CGGAAAGT^800CWCCCTCATAGCT [VIII]
[2]
  stability by HPLC analysis: no signs of degradation

## I/XIX: non-labelled duplex of I and XIX (chain 1 dCdGdGdAdAdAdGdT[TEGam]dCdCdCdTdCdAdTdAdGdCdT; chain 2 dAdGdCdTdAdTdGdAdGdGdGdAdCdTdTdTdCdCdG-{Y})
[3]; Table 3, method UV
  Melting point, ° C., (method): 64 (UV) ° C.
[3]
  Melting point, ° C, method: 64 (UV) ° C

## ODN1/ODN3: non-labeled duplex of ODN1 and ODN3 (chain 1 CGGAAAGTCCCTCATAGCT; chain 2 dAdGdCdTdAdTdGdAdGdGdGdAdCdTdTdTdCdCdG-{Y}; chain 1: unmodified DNA) [reference compound]
[3]
  Melting point, ° C, method: 66 (UV) ° C

## ODN4/ODN5: duplex with truncated NF-κB p50 binding site GGAAAG (chain 1 TGGAAAGCTTTTTACAGTT; chain 2 AACTGTAAAAAGCTTTCCA; listed as DNA, chemistry not fully specified)
[3]
  Melting point, ° C, method: 61 (UV) ° C
NF-κB p50
  fluorescence changes in EMSA bands on p50 binding: no measurably significant fluorescence changes
